Results reported in the NIST ThermoML archive (doi:10.1021/je901020a).

Legend:
[1] = xn = mol fraction of the nth substance listed; conditions: 101 kPa, Liquid; for speed of sound: Pulse-echo method
[2] = refractive index (Na D-line) (dimensionless); xn = mol fraction of the nth substance listed; conditions: 101 kPa, Liquid, Standard Abbe refractometry

Cc1ccccc1C [1,2-dimethylbenzene] + C1CCCCC1
Conditions | mass density, [1] [kg/m3] | refractive index, [2] | speed of sound, [1] [m/s]
298.15 K, x2 = 0 | 875.4 | 1.50262 | 1350
298.15 K, x2 = 0.0471 | 870.8 | 1.49895 | 1343
298.15 K, x2 = 0.0981 | 865.5 | 1.49488 | 1336
298.15 K, x2 = 0.1961 | 855.2 | 1.48705 | 1323
298.15 K, x2 = 0.2986 | 844.5 | 1.47886 | 1310
298.15 K, x2 = 0.3979 | 834 | 1.47092 | 1298
298.15 K, x2 = 0.4964 | 823.8 | 1.46293 | 1288
298.15 K, x2 = 0.5975 | 813.5 | 1.45493 | 1278
298.15 K, x2 = 0.6978 | 803.2 | 1.44691 | 1269
298.15 K, x2 = 0.796 | 793.4 | 1.43924 | 1263
298.15 K, x2 = 0.8995 | 783.4 | 1.43126 | 1257
298.15 K, x2 = 0.9512 | 778.6 | 1.42739 | 1255
313.15 K, x2 = 0 | 862.9 | 1.49466 | 1289
313.15 K, x2 = 0.0528 | 857.4 | 1.49053 | 1282
313.15 K, x2 = 0.0977 | 852.7 | 1.48716 | 1275
313.15 K, x2 = 0.1958 | 842.3 | 1.47934 | 1261
313.15 K, x2 = 0.2169 | 840 | 1.47754 | 1258
313.15 K, x2 = 0.4011 | 820.4 | 1.46285 | 1234
313.15 K, x2 = 0.4999 | 809.9 | 1.45473 | 1222
313.15 K, x2 = 0.5976 | 799.6 | 1.44694 | 1211
313.15 K, x2 = 0.6971 | 789.4 | 1.43921 | 1201
313.15 K, x2 = 0.7994 | 779 | 1.43094 | 1193
313.15 K, x2 = 0.8995 | 769.1 | 1.42311 | 1186
313.15 K, x2 = 0.9484 | 764.5 | 1.41926 | 1183

C1CCCCC1 [cyclohexane] + Cc1ccccc1C
x1 = 1
Conditions | mass density, [1] [kg/m3] | refractive index, [2] | speed of sound, [1] [m/s]
298.15 K | 773.9 | 1.4236 | 1255
313.15 K | 759.6 | 1.41516 | 1182

C1CCCC1 [cyclopentane] + Cc1ccc(C)cc1
Conditions | mass density, [1] [kg/m3] | refractive index, [2] | speed of sound, [1] [m/s]
298.15 K, x1 = 0.0462 | 852.5 | 1.49015 | 1305
298.15 K, x1 = 0.0885 | 848.7 | 1.48707 | 1300
298.15 K, x1 = 0.1848 | 839.6 | 1.48001 | 1289
298.15 K, x1 = 0.2886 | 829.3 | 1.47236 | 1277
298.15 K, x1 = 0.3869 | 818.8 | 1.46445 | 1266
298.15 K, x1 = 0.4744 | 809 | 1.45737 | 1256
298.15 K, x1 = 0.5886 | 795.1 | 1.44669 | 1244
298.15 K, x1 = 0.6913 | 782.2 | 1.4372 | 1233
298.15 K, x1 = 0.7923 | 768.9 | 1.42618 | 1223
298.15 K, x1 = 0.8935 | 755 | 1.41575 | 1213
298.15 K, x1 = 0.9471 | 747.4 | 1.40916 | 1208
298.15 K, x1 = 1 | 740 | 1.40292 | 1204
313.15 K, x1 = 0.0443 | 839.7 | 1.48224 | 1243
313.15 K, x1 = 0.0981 | 834.8 | 1.47862 | 1236
313.15 K, x1 = 0.2012 | 824.7 | 1.47117 | 1224
313.15 K, x1 = 0.2998 | 814.5 | 1.46343 | 1211
313.15 K, x1 = 0.3542 | 808.5 | 1.4589 | 1204
313.15 K, x1 = 0.4799 | 794.3 | 1.44816 | 1189
313.15 K, x1 = 0.6021 | 779.4 | 1.43702 | 1173
313.15 K, x1 = 0.703 | 766.4 | 1.42761 | 1161
313.15 K, x1 = 0.8072 | 752.3 | 1.41693 | 1149
313.15 K, x1 = 0.909 | 737.9 | 1.4057 | 1138
313.15 K, x1 = 0.9601 | 730.6 | 1.39936 | 1133
313.15 K, x1 = 1 | 725 | 1.39456 | 1130

Cc1cc(C)cc(C)c1 [1,3,5-trimethylbenzene] + C1CCCC1
x2 = 0
Conditions | mass density, [1] [kg/m3] | refractive index, [2] | speed of sound, [1] [m/s]
298.15 K | 861.1 | 1.49693 | 1336
313.15 K | 848.8 | 1.48923 | 1277

Cc1ccccc1C [1,2-dimethylbenzene] + C1CCCCCCC1
x2 = 0
Conditions | mass density, [1] [kg/m3] | refractive index, [2] | speed of sound, [1] [m/s]
298.15 K | 875.4 | 1.50262 | 1350
313.15 K | 862.9 | 1.49466 | 1289

Cc1ccccc1C [1,2-dimethylbenzene] + CC1CCCCC1
x2 = 0
Conditions | mass density, [1] [kg/m3] | refractive index, [2] | speed of sound, [1] [m/s]
298.15 K | 875.4 | 1.50262 | 1350
313.15 K | 862.9 | 1.49466 | 1289
